The values that follow come from article doi:10.1101/2025.11.03.686228, “Design of Tissue-Selective PROTACs Through Recruiting E3 Ligase Scaffolding Protein MAGEA11” (bioRxiv, 2025).

This assay addresses T1, BRD4 (first bromodomain, BRD4-BD1) (Homo sapiens, UniProt O60885).
T1 construct: BRD4-BD1 (first bromodomain)
As to the kind of experiment: fluorescence polarization competitive inhibition assay. It is filed as binding.

The structures appear in SMILES notation.

Regarding `Cc1sc2c(c1C)C(c1ccc(Cl)cc1)=N[C@@H](CC(=O)NCCOCCOCCOCCOCCOCCOCCOCCOCc1cn(-c3ccc4c(NCCCNCc5ccc6[nH]ccc6c5)ccnc4c3)nn1)c1nnc(C)n1-2` [105B], the Ki (as a rule, a measure of affinity in units of concentration, obtained from inhibition or displacement) came out at 14.9 ± 0.97 nM.
